# Test results taken from patent US7750043B2, “Modified retinoid compounds and their uses” (Wisconsin Alumni Research Foundation, priority 2003, dated 2010).
# “Also recorded” adds a separate entry of the source.
# Legend:
# [1] = tested on: vitamin A-deficient rats; test: Growth of vitamin A-deficient rats given the compounds orally in Wesson oil; type: in vivo, rat; conditions: for growth of vitamin A-deficient rats, comparison between atRA and its esters / growth of vitamin A-deficient rats compared to vehicle control: 83 pmole/day, FIG. 4; for growth of vitamin A-deficient rats, comparison between atRA and its esters / growth of vitamin A-deficient rats compared to vehicle control / growth (weight change) of vitamin A-deficient rats compared to atRA / growth response of vitamin A-deficient rats compared to atRA: 5 days; for in vivo activity relative to atRA (growth support): oral, vitamin A-deficient rats, overall estimate; for growth (weight change) of vitamin A-deficient rats compared to atRA: 83 pmoles/day oral in Wesson oil, FIG. 1; for growth response of vitamin A-deficient rats compared to atRA: 166 pmoles/day (50 μg/day atRA or 59.5 μg/day t-butyl-RA), FIG. 2
# Source text: The first test was to determine if the esterified compounds when given orally could restore normal growth of vitamin A-deficient rats. For this study, Sprague-Dawley, weanling rats were obtained from Harlan (Indianapolis, Ind.). They were fed the purified vitamin A-deficient diet previously described (Suda et al., 1970, J. Nutr. 100:1049-152) supplemented with vitamins D, E and K (White et al., 1998, Proc. Natl. Acad. Sci. USA 95:13459-13464). When the animals stopped growing and began to lose weight, they were administered the indicated doses per day dissolved in Wesson oil. Controls were given the Wesson oil alone (vehicle group). The weight change over the 5-day study period was analyzed by ANOVA, followed by a matrix of pairwise comparison probabilities using four post-hoc tests when the overall P value was less than 0.05. The post-hoc comparison tests included: Turkey HSD multiple comparisons, Sheffe test, Fisher's least-significant-difference test and the Bonferroni adjustment test.
# Weanling male rats were obtained from the Harlan Company and were housed individually in hanging wire cages and fed the vitamin A-deficient diet described previously (Suda et al., 1970). At approximately 70 days of age, the animals began to show a leveling off of growth and began to show weight loss. At this time, they were used for the following studies: They were given either 0.1 ml of Wesson oil (vehicle) or the indicated dose of atRA dissolved in the vehicle or one of the derivatives at the indicated dose dissolved in the vehicle. Body weights were recorded daily and plotted as cumulative weight gain or loss over the study period as indicated on the graphs. A daily dose of 83 pmoles (25 μg/day) of atRA is near the minimum amount needed to produce normal growth in […] rats as compared to the vehicle controls that continue to lose weight (FIG. 1). […] When the dose was increased to 50 μg/day of atRA or 59.5 μg/day of the t-butyl derivative, as expected, the growth response was identical.
# [2] = tested on: normal male rats; test: Acute toxicity of atRA versus t-butyl-RA in normal male rats; type: in vivo, rat; conditions: for body weight change / apparent toxicity: second study, 1 mmole/kg/day for 5 days, FIG. 6
# Protocol: Two independent toxicity studies were carried out with the t-butyl-RA derivative. […] However, the difference in testes weights between the atRA and t-butyl-RA groups was not statistically significant due to rather large biological variability.
# We next examined the acute toxicity of the t-butyl derivative as compared to the atRA derivative in two independent trails. In these experiments, normal male rats weighing approximately 250-300 grams were used. They were individually housed in cages and given Purina lab chow as well as water ad libitum. […] This is an extremely large dose, and represents at least 3,600 times the amount of the t-butyl derivative needed to support a physiological growth response in vitamin A-deficient rats. […] Another indication of toxicity is testes weight as illustrated in FIG. 7.
# [3] = tested on: pregnant rats (embryos); conditions: female, Sprague Dawley, rat, in vivo, 18.5 embryonic day
# Source text: Teratogenic activity of atRA is a serious drawback in its therapeutic potential. […] The results of this experiment illustrate that atRA is, indeed, teratogenic and that the t-butyl derivative shares this liability, but only when given at a dose of 10 times higher than that of atRA. Thus, there is a larger window of safety when using the t-butyl-RA derivative when compared to atRA.
# In this experiment, 19 female rats were obtained from Sprague Dawley and were individually housed in cages and given purina chow as well as water ad libitum. After approximately two weeks of acclimation to the animal facility, the females were placed with normal males on the same diet, between 6:00 and 9:00 pm. The following morning, the females were checked for vaginal plugs indicating fertilization. Vaginal smears were then checked for sperm and when shown to be positive, the pregnant rat was placed in the study. At embryonic day 12.3 between 9:00 and 10:00 in the morning, the rats received the following treatments given as a bolus dose in oil orally. Four groups of rats received the vehicle; four received 0.1 mmole/kg (30 mg/kg) atRA in the oil vehicle; another group received an equal molar amount (35.7 mg/kg) of t-butyl-RA; and a final group received a ten-fold higher dose (357 mg/kg) of t-butyl-RA. The embryos were removed by cesarean section on day 18.5 and weighed as well as checked for cleft palette. […]
compound,measurement,setting,value
"CC1=C(/C=C/C(C)=C/C=C/C(C)=C/C(=O)O)C(C)(C)CCC1 [atRA, all-trans-retinoic acid, reference compound]","growth of vitamin A-deficient rats, comparison between atRA and its esters",[1],superior to that of the cholesterol ester-fed group
"CC1=C(/C=C/C(C)=C/C=C/C(C)=C/C(=O)O[C@H]2CC[C@@]3(C)C(=CCC4C3CC[C@@]3(C)C4CC[C@@H]3[C@H](C)CCCC(C)C)C2)C(C)(C)CCC1 (stereo partly drawn) [cholesterol ester, all-trans-retinoic acid cholesterol ester]",growth of vitamin A-deficient rats compared to vehicle control,[1],significantly enhanced growth compared to vehicle control animals; also recorded: clearly much improved over the vehicle control
same,"growth of vitamin A-deficient rats, comparison between atRA and its esters",[1],less effective
same,in vivo activity relative to atRA (growth support),[1],less effective; also recorded: one-third
"CC1=C(/C=C/C(C)=C/C=C/C(C)=C/C(=O)OC(C)(C)C(C)(C)O)C(C)(C)CCC1 [pinacol ester, all-trans-retinoic acid pinacol ester]",growth of vitamin A-deficient rats compared to vehicle control,[1],significantly enhanced growth compared to vehicle control animals
same,"growth of vitamin A-deficient rats, comparison between atRA and its esters",[1],nearly equivalent to atRA
same,in vivo activity relative to atRA (growth support),[1],nearly as active as atRA
"CC1=C(/C=C/C(C)=C/C=C/C(C)=C/C(=O)OC(C)(C)C)C(C)(C)CCC1 [t-butyl-RA, all-trans-retinoic acid tert-butyl ester]",non-toxic dose as multiple of the amount needed to support a physiological growth response,[2]; 1 mmole/kg/day (357 mg/kg/day) versus growth dose in vitamin A-deficient rats,"at least 3,600 times"
same,testes weight,"[2]; 1 mmole/kg/day, FIG. 7, listed as t-butyl derivative",no such indication; also recorded: similar
same,body weight change,"[2]; first study, 1 mmole/kg/day (300 mg/kg/day atRA, 357 mg/kg/day t-butyl-RA), 7 days, FIG. 5",continued growth; also recorded: did not cause a weight loss
same,other signs of toxicity,"[2]; first study, 1 mmole/kg/day, 7 days, FIG. 5",no other externally obvious toxicity
same,body weight change / apparent toxicity,[2],no apparent toxicity
same,body weight change / apparent toxicity,[2]; listed as t-butyl derivative,normal growth
same,growth (weight change) of vitamin A-deficient rats compared to atRA,[1],did not differ significantly from that of the group fed an equal molar amount of atRA
same,growth (weight change) of vitamin A-deficient rats compared to atRA,[1]; listed as t-butyl derivative,did not differ from that of atRA
same,growth response of vitamin A-deficient rats compared to atRA,[1],equivalent
same,growth response of vitamin A-deficient rats compared to atRA,[1]; listed as t-butyl derivative,identical
same,in vivo activity relative to atRA (growth support),[1],equal to atRA in potency and efficacy
same,in vivo activity relative to atRA (growth support),[1]; listed as t-butyl derivative,as active as atRA
same,in vivo activity relative to atRA (growth support),[1]; listed as t-butyrate ester,as active in vivo when given orally as is atRA
same,dose relative to atRA required to produce equivalent teratogenic effects,[3],10
same,times less teratogenic than atRA,[3],approximately 10 times
